Target: T1, TRPM3 P1090Q mutant (Homo sapiens, UniProt Q9HCF6, P1115Q)
T1 sequence (Q9HCF6 1-1325 isoform Q9HCF6-10 P1090Q): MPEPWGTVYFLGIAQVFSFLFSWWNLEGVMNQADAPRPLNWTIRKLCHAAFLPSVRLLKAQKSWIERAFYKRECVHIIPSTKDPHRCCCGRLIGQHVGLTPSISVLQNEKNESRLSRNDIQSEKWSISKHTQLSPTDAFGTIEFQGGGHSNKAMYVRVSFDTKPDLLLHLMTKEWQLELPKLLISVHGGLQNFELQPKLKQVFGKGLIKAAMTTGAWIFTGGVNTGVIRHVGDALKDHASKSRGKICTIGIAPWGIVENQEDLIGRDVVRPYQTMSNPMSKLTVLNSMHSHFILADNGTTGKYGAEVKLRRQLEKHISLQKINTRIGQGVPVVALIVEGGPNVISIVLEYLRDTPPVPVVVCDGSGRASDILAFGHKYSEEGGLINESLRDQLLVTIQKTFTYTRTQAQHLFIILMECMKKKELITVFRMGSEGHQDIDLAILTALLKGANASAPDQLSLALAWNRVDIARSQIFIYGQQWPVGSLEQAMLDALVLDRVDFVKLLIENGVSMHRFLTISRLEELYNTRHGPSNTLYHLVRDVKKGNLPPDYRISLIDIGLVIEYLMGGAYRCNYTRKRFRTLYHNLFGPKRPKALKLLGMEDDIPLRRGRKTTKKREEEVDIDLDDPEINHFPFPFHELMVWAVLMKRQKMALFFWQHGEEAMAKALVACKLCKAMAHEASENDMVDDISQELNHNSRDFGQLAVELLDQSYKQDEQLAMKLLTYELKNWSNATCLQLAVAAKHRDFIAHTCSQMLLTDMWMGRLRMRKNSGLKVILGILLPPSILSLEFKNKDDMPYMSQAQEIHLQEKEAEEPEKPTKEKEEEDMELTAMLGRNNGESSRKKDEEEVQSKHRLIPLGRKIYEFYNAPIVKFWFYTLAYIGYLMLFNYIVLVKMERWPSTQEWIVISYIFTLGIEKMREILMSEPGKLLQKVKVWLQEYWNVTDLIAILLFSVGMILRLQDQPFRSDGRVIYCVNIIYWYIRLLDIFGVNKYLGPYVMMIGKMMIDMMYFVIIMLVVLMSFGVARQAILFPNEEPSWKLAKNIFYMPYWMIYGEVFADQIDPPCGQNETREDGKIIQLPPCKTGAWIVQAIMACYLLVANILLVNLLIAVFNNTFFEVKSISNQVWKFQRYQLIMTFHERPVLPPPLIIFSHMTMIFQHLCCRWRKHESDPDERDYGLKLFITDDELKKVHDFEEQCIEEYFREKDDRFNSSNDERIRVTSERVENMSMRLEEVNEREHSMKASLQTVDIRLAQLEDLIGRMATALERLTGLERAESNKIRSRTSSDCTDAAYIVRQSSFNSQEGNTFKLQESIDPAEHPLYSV
Test: Fura-2-based calcium imaging, HEK293T cells transfected with P1090Q hTRPM3
Assay type: cell-based
Parameters: expressed in transfected cells; host or cells: HEK293T
Method: HEK293T cells ([Graham et al., 1977]) were cultured as described previously ([Vriens et al., 2007]) and used up in passage number 14. HEK293T cells were tested for the lack of mycoplasma and transiently transfected with 2 µg of DNA using TransIT transfection reagent (Mirus) 36–48 hr before the measurements. In case of co-cultures a ratio of 1:1 between hTRPM3-YFP WT and mutants-YFP DNA was used.
All mutants were obtained by the standard PCR overlap extension method using hTRPM3 directly linked to YFP from pCAGGS/IRES-GFP vector ([Vriens et al., 2007]). Accuracy of all mutant sequences was verified by sequencing of the entire DNA constructs.
Changes in intracellular calcium concentration were monitored using ratiometric Fura-2-based fluorimetry. Cells were loaded with 2 µM Fura-2-acetoxymethyl ester (Alexis Biochemicals) for 30 min at 37°C. Fluorescence was measured during alternating illumination at 340 and 380 nm using Eclipse Ti (Nikon) fluorescence microscopy system, and absolute calcium concentration was calculated from the ratio of the fluorescence signals at these two wavelengths (R = F340/F380) as [Ca^2+]=Km × (R-Rmin)/(Rmax-R), where Km, Rmin and Rmax were estimated from in vitro calibration experiments with known calcium concentrations. The bath solution contained (in mM) 138 NaCl, 5.4 KCl, 2 CaCl2, 2 MgCl2, 10 glucose, and 10 HEPES, pH 7.4. […]

| Molecule | Effect on basal [Ca2+]i (primidone 100 µM, isosakuranetin 50 µM) | PS concentration giving robust calcium responses (as low as) |
| --- | --- | --- |
| CCC1(c2ccccc2)C(=O)NCNC1=O [primidone] | reduced [Ca^2+]i |  |
| pregnenolone sulfate [PS] |  | 1 µM |
